# Measurements as given in patent US20240269230A1 (priority 2020, published 2024).
# “And” between values parts separate entries of the source, which are not always exact repeats. Equal values may be shown once. Bridge positions count the residues as written; N and C are the ends. Ends that are not written are not given here. Peptide text beside a SMILES is read from it.
# What was measured:
# [1] = mouse, in vivo, ip
# kOR [2] = target: T1, kOR (Mus musculus, UniProt P33534); experiment: biochemical; type: binding
# T1 sequence (P33534 whole entry): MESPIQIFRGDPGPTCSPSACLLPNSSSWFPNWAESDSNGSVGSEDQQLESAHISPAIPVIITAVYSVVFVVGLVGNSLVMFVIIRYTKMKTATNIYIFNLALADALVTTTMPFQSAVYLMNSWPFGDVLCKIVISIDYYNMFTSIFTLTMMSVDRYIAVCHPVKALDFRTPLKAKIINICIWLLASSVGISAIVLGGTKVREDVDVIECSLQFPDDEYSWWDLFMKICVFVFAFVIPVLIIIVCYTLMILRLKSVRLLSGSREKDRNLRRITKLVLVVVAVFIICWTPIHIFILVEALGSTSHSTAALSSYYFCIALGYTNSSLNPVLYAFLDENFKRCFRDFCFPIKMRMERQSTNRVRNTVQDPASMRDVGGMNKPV
# kOR [3] = target: T1, kOR; experiment: cell-based
# kOR [4] = target: T1, kOR; type: cell-based
# EAE mouse model = conditions: mice; oral administration; cited from earlier work
# hKOR = hKOR (Homo sapiens, UniProt P41145); conditions: cited from earlier work
# Sequence of hKOR (P41145 whole entry): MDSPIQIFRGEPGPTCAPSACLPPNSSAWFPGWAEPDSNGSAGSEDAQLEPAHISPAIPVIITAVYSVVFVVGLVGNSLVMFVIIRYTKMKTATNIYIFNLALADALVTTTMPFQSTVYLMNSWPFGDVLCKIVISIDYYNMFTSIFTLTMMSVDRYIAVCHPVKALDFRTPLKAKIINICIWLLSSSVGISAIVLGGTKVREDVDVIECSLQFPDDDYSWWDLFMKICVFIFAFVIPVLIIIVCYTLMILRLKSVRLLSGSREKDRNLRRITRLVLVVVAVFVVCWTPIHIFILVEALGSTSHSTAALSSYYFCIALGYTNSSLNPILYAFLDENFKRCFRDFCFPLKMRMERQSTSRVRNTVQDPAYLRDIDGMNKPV
# T-cell proliferation = conditions: in vitro; IL-2-dependent mechanism; cited from earlier work
molecule,measurement,setting,value
"Cc1cc(-c2ccc(/N=N/c3ccc4c(S(=O)(=O)[O-])cc(S(=O)(=O)[O-])c(N)c4c3O)c(C)c2)ccc1/N=N/c1ccc2c(S(=O)(=O)[O-])cc(S(=O)(=O)[O-])c(N)c2c1O.[Na+].[Na+].[Na+].[Na+] [EvansBlue dye, reference compound]",Biodistribution: brain,[1],strong signal
same,Biodistribution: spine,[1],strong signal
"CC(C)C[C@@H]1NC(=O)CNC(=O)[C@H](CC(N)=O)NC(=O)[C@H](CCCNC(=N)N)NC(=O)[C@H]([C@@H](C)O)NC(=O)[C@@H]2CSSC[C@@H]3NC(=O)[C@H]([C@@H](C)O)NC(=O)CNC(=O)CNC(=O)[C@H](C(C)C)NC(=O)[C@@H]4CSSC[C@H](NC(=O)[C@H](CCCCN)NC(=O)[C@H](CSSC[C@H](NC(=O)[C@H](C(C)C)NC(=O)[C@@H]5CCCN5C1=O)C(=O)NCC(=O)N[C@@H](CCC(=O)O)C(=O)N[C@@H]([C@@H](C)O)C(=O)N4)NC(=O)CNC(=O)[C@@H]1CCCN1C(=O)[C@H]([C@@H](C)O)NC(=O)[C@H](CC(N)=O)NC3=O)C(=O)N[C@@H](CO)C(=O)N[C@@H](Cc1c[nH]c3ccccc13)C(=O)N1CCC[C@H]1C(=O)N[C@@H](C(C)C)C(=O)N2 [[T20K]-kalata B1] (cyclo(CGETCVGGTCNTPGCKCSWPVCTRNGLPV); disulfide 1-15, 5-17, 10-22 (inferred); ring closure inferred)",Effect on the affinity of dynorphin A 1-13,kOR [2],only slightly affects the affinity
same,Effect on tritiated diprenorphine binding,kOR [2],negatively modulates tritiated diprenorphine
same,Ki,kOR [2],2700 nM
same,EC50,kOR [3],17 µM
same,"Effect on the efficacy of U50,488 (cAMP)",kOR [3],only slightly affected the efficacy
same,Effect on the efficacy of dynorphin A 1-13 (cAMP),kOR [3],increase in its efficacy
same,Effect on the potency of dynorphin A 1-13 (cAMP),kOR [3],does not affect the potency
same,Mode of action at the kOR,kOR [3],full agonist
same,"Shift in the potency of U50,488 (cAMP)",kOR [3],nine-fold leftward shift in the potency
same,"Effect on the efficacy of U50,488 to recruit beta arrestin",kOR [4],remarkable alleviation of the efficacy
same,"Effect on the potency of U50,488 to recruit beta arrestin",kOR [4],not impinging on its potency
same,beta arrestin recruitment,kOR [4],no recruitment of beta arrestin could be detected
same,Symptoms of EAE,EAE mouse model,significant delay and diminished symptoms of EAE
same,Binding to and activation of hKOR,hKOR,bind to and activate hKOR
"CC[C@H](C)[C@@H]1NC(=O)[C@H](C(C)C)NC(=O)[C@H]([C@@H](C)O)NC(=O)[C@H](CO)NC(=O)[C@H](Cc2ccccc2)NC(=O)[C@@H]2CSSC[C@@H]3NC(=O)[C@H](C(C)C)NC(=O)[C@H](CCCCN)NC(=O)[C@H](CC(N)=O)NC(=O)[C@H](CCCCN)NC(=O)[C@@H]4CSSC[C@H](NC(=O)[C@H](CO)NC(=O)[C@H](CCC(=O)O)NC(=O)CNC(=O)[C@H](CSSC[C@H](NC(=O)CNC1=O)C(=O)N[C@@H](CO)C(=O)N4)NC(=O)[C@@H]1CCCN1C(=O)[C@H]([C@@H](C)CC)NC(=O)[C@H](C(C)C)NC(=O)CNC(=O)[C@H](CC(N)=O)NC(=O)[C@H](CCCNC(=N)N)NC(=O)[C@H](Cc1ccc(O)cc1)NC3=O)C(=O)N[C@@H](C(C)C)C(=O)N[C@@H](Cc1ccccc1)C(=O)N[C@@H]([C@@H](C)CC)C(=O)N1CCC[C@H]1C(=O)N2 [caripe 10] (cyclo(CFSTVIGCSCKNKVCYRNGVIPCGESCVFIP); disulfide 1-15, 8-23, 10-27 (inferred); ring closure inferred)",Ki,kOR [2],1000 nM
"conjugated [T20K]-kalata B1: [T20K]-kalata B1 conjugated to VivoTag 680 XL Fluorochrome (GLPVCGETCVGGTCNTPGCKCSWPVCTRN; ends and bridges not checked; also: conjugated to VivoTag 680 XL fluorochrome (place not given here); UniProt P56254 89-117, looked up, variant T20K)",Biodistribution: brain,[1],accumulated in the brain
same,Biodistribution: spine,[1],also in the spine but to a far less extent
dynorphin A 1-13 [reference compound],Receptor activation cAMP Emax (%),kOR [3],113% and 104% and 119% and 134% and 137% and 96%
"kalata B1: circular plant peptide (cyclotide), GLPVCGETCVGGTCNTPGCTCSWPVCTRN (cyclo(GLPVCGETCVGGTCNTPGCTCSWPVCTRN); ends not checked; also: three disulfide bonds (cystine knot), pairing not given here; listed as Oldenlandia affinis)",T-cell proliferation,T-cell proliferation,silence T-cell proliferation
"vitri cyclotide: novel cyclotide isolated from Viola tricolor, GDPIPCGETCFTGKCYSETIGCTCEWPICTKN (not fully specified (bridges); ends and bridges not checked; also: cyclic, type not given here)",Binding of isolated vitri peptide to the kOR,kOR [2],able to bind to the kOR
